Assay results published in patent EP4696688A1, “BENZO-FUSED RING COMPOUND INHIBITOR, AND PREPARATION METHOD THEREFOR AND USE THEREOF” (Shanghai Hansoh Biomedical Co., Ltd., priority 2023, dated 2024).

Tests used:
human CYP11B1 = target: T1, human CYP11B1 (Homo sapiens, UniProt P15538); test: G-402 cell enzyme experiment, CYP11B1 (cortisol product, HTRF), selectivity versus CYP11B2; type: cell-based; conditions: human selective factor: ratio of CYP11B1 EC50 to CYP11B2 EC50; G-402 cells
T1 construct: The main elements of an expression plasmid include ORF of human CYP11B1 or human CYP11B2; expressed in transfected cells
T1 sequence (P15538 25-503): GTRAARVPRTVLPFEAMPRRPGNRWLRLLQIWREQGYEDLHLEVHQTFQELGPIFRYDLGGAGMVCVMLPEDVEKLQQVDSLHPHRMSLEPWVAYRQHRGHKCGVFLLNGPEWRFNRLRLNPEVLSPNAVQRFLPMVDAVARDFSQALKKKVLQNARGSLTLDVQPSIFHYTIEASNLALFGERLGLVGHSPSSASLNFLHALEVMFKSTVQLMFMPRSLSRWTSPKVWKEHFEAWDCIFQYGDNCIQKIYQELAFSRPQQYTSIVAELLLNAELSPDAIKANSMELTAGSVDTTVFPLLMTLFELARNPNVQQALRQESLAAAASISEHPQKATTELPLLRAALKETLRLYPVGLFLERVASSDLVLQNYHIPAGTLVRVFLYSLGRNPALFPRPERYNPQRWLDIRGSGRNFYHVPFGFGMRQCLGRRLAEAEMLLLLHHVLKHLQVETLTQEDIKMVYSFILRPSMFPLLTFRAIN

human CYP11B2 = target: T2, human CYP11B2 (Homo sapiens, UniProt P19099); test: G-402 cell enzyme experiment, CYP11B2 (aldosterone product, HTRF); type: cell-based; conditions: G-402 cells stably expressing human CYP11B2, 1 µM 11-deoxycorticosterone, 16 h
T2 construct: The main elements of an expression plasmid include ORF of human CYP11B1 or human CYP11B2; expressed in transfected cells
T2 sequence (P19099 25-503): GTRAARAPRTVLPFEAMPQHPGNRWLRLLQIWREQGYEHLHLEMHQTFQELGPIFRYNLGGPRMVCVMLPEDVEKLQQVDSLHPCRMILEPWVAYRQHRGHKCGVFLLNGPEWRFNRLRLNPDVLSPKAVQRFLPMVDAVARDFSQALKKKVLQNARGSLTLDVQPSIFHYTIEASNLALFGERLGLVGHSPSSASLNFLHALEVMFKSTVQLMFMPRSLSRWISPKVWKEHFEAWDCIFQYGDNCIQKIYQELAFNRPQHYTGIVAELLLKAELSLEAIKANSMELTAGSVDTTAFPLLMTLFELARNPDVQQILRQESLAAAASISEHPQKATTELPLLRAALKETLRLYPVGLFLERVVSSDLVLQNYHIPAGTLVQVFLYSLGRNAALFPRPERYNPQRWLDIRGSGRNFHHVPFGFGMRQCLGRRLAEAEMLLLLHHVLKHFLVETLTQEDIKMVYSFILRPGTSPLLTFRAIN
Procedure, shortened: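 Stably transfected G-402 cells in DMEM/F12 with 2.5% charcoal-treated FBS, incubated 16 h with 1 µM 11-deoxycorticosterone (CYP11B2, aldosterone product) or 1 µM 11-deoxycortisol (CYP11B1, cortisol product). Supernatant product measured by HTRF; EC50 from 4-parameter MMF sigmoidal fit, minimum defined by empty-plasmid cells.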

[1] = Pharmacokinetic determination in rats; type: in vivo; conditions: rat, male SD rats, plasma, oral administration (PO) 5 mg/kg; for MRT inf: read-out: MRT0-∞
Method: SD rats were used as test animals to study the pharmacokinetic behavior of the compounds of the present invention in rats (plasma) after oral administration.
3 SD rats per group, male.
Formulation of drug for oral administration: 0.5% CMC-Na (1% Tween 80)
5 g of sodium carboxymethyl cellulose (CMC-Na, viscosity: 800-1200 Cps) was weighed and dissolved in 1000 mL of purified water, and 10 g of Tween 80 was added. These materials were uniformly mixed to form a clear solution.
The example compounds were weighed and dissolved in the solution and the mixture was shaken well and ultrasonicated for 15 min to obtain a colorless clear solution with a concentration of 0.5 mg/mL. Formulation of drug for intravenous administration: 5% DMSO + 10% Solutol HS15 + 85% PBS
After overnight fasting, 3 male SD rats per group were administered orally (PO) at a dose of 5 mg/kg with an administration volume of 10 mL/kg. […]
0.2 mL of blood was collected from the jugular vein of the experimental animals before administration and at 0.25 h, 0.5 h, 1.0 h, 2.0 h, 4.0 h, 6.0 h, 8.0 h, and 24.0 h after administration and placed in an EDTA-2K test tube, and the test tube was centrifuged at 8000 rpm for 6 min at 4°C to separate the plasma, which was stored at -80°C; and the animals were fed 4 h after administration.
3 Experimental results: The final determination results were obtained by using LCMS/MS method.

SMILES	hsF (human CYP11B1)	EC50 (human CYP11B2)	AUC(0-inf) [1]	AUC(0-t) [1]	Cmax [1]	Tmax [1]	half-life [1]	MRT inf [1]
CCC(=O)N[C@@H]1CCCc2c(-c3ccc4c(cnn4C)c3)cncc21 [Example 60, (R)-N-(4-(1-methyl-1H-indazol-5-yl)-5,6,7,8-tetrahydroisoquinolin-8-yl)propanamide]	170x	69 nM	22400 ng·h/mL	21800 ng·h/mL	4900 ng/mL	2 h	1.3 h	3.1 h
[2H]C([2H])([2H])n1cc(C(=O)N2CC3(C2)CN(c2cncc(-c4ccc5nc(OC)ccc5c4)c2)C3)cn1 [Example 78, (6-(5-(2-methoxyquinolin-6-yl)pyridin-3-yl)-2,6-diazaspiro[3.3]heptan-2-yl)(1-(methyl-d3)-1H-pyrazol-4-yl)methanone]	> 8488x	24 nM	21600 ng·h/mL	21600 ng·h/mL	3210 ng/mL	4 h	1.9 h	4.7 h
Cn1cc(C(=O)N2CC(Oc3cncc(-c4ccc5c(c4)sc(=O)n5C)c3)C2)cn1 [Example 91, 3-methyl-6-(5-((1-(1-methyl-1H-pyrazole-4-carbonyl)azetidin-3-yl)oxy)pyridin-3-yl)benzo[d]thiazol-2(3H)-one]	2278x	12 nM	18200 ng·h/mL	18200 ng·h/mL	2560 ng/mL	1 h	2.2 h	4.2 h
Cn1cc(C(=O)N2CCC3(CC2)CN(c2cncc(-c4ccc5c(c4)sc(=O)n5C)c2)C3)cn1 [Example 103, 3-methyl-6-(5-(7-(1-methyl-1H-pyrazole-4-carbonyl)-2,7-diazaspiro[3.5]nonan-2-yl)pyridin-3-yl)benzo[d]thiazol-2(3H)-one]	1292x	26 nM	24700 ng·h/mL	24700 ng·h/mL	2700 ng/mL	4 h	1.8 h	5.6 h

Further compounds by falling EC50 (human CYP11B2), results first:

hsF (human CYP11B1)	EC50 (human CYP11B2)	AUC(0-inf) [1]	AUC(0-t) [1]	Cmax [1]	Tmax [1]	half-life [1]	MRT inf [1]	SMILES
3999x	12 nM	16700 ng·h/mL	16700 ng·h/mL	3160 ng/mL	4 h	2.8 h	4.5 h	COc1ccc2cc(-c3cncc(N4CC5(CN(C(=O)c6cnn(C)c6)C5)C4)n3)ccc2n1 [Example 79, (6-(6-(2-Methoxyquinolin-6-yl)pyrazin-2-yl)-2,6-diazaspiro[3.3]heptan-2-yl)(1-methyl-1H-pyrazol-4-yl)methanone]
> 22909x	9 nM	33600 ng·h/mL	33600 ng·h/mL	5720 ng/mL	2 h	2.2 h	3.8 h	COc1ccc2cc(-c3cncc(N4CC5(CN(C(=O)c6cnn(C)c6)C5)C4)c3)ccc2n1 [Example 23, (6-(5-(2-methoxyquinolin-6-yl)pyridin-3-yl)-2,6-diazaspiro[3.3]heptan-2-yl)(1-methyl-1H-pyrazol-4-yl)methanone]
1048x	9 nM	22500 ng·h/mL	20100 ng·h/mL	3950 ng/mL	2 h	2 h	4.1 h	COc1ccc2cc(-c3cncc(N4CC5(CN(C(=O)c6ccc(C)nc6)C5)C4)n3)ccc2n1 [Example 100, (6-(6-(2-methoxyquinolin-6-yl)pyrazin-2-yl)-2,6-diazaspiro[3.3]heptan-2-yl)(6-methylpyridin-3-yl)methanone]
